Tests used:
[1] = MTT assay for cytotoxicity; format: cell-based, Human; details: human, HepG2.2.15 cells, half (50%) lethal concentration
Procedure: (§1) Human hepatoblastoma cell line HepG2.2.15 stably transfected with full-length HBV (provided by Shanghai Institute of Materia Medica, Chinese Academy of Sciences)
(§2) HepG2.2.15 cells were cultured and passaged according to conventional methods. DMEM containing 10% (v/v) bovine serum and the selective antibiotic G418 was used as a medium, the cells were cultured in an incubator at 37° C. under 5% CO2 for 8 days (the medium was exchanged on the 4th day).
(§3) The test compounds were formulated with DMSO into a 40 mM stock solution, which was then prepared into a solution at the defined highest concentration using a DMEM medium containing 10% Hyclone™ Fetal Bovine Serum, followed by diluting the same; the positive drug was lamivudine, which was also prepared into a solution at the defined concentration with the DMEM medium containing 10% Hyclone™ Fetal Bovine Serum.
HepG2.2.15 cells were seeded at 5×10^3 cells/well in a 96-well plate, and cultured for eight days in the presence of the compounds according to the above method, and then 200 μl of the supernatant was taken out, followed by addition of the MTT solution. After 4 hours of culture, a lysate was added. After 12 hours of culture, the OD570 was measured on a microplate reader. By comparing with the absorbance of the control well, the percentage of viable cells was calculated, and CC50, the concentration required for the reduction of cell viability by 50%, was calculated.

HBV = HBV DNA content in the supernatant of cell culture (real-time PCR); format: cell-based, hepatitis B virus (HBV); details: Hepatitis B virus, HepG2.2.15, 192 h, inhibition of HBV DNA replication, HepG2.2.15 supernatant, 8 days
Procedure: as §1, §2, §3
HepG2.2.15 cells were treated with compounds at different concentrations for 8 days (the medium was exchanged on the 4th day), and the supernatant was aspirated, and the HBV DNA contained in the mature virus particles in the supernatant was quantitated by using a real-time PCR method.
1) The supernatant DNA from a 96-well plate, 200 μl/well, was collected, wherein the contents in the duplicate wells were collected into a same EP tube, and centrifuged at 4000 rcf for 5 min, and the supernatant was collected;
2) 200 μl of the supernatant was added into a 1.5 ml EP tube, added with 20 μl of proteinase K and 200 μl of Buffer AL (Qiagen, DNeasy® Blood & Tissue Kit), vortexed to be mixed thoroughly, and incubated at 56° C. for 10 min;
3) 200 μl of ethanol was added and vortexed to be mixed thoroughly;
4) all the liquid obtained from step 3) was added into a DNeasy Mini spin column (Qiagen, DNeasy® Blood & Tissue Kit) placed in a 2 ml waste liquid collection tube, and centrifuged at 6000 rcf for 1 min, and the supernatant was discarded;
5) the DNeasy Mini spin column was placed in a new 2 ml waste liquid collection tube, added with 500 μl of Buffer AW1 (Qiagen, DNeasy® Blood & Tissue Kit), and centrifuged at 6000 rcf for 1 min, and the supernatant was discarded;
6) the DNeasy Mini spin column was placed in a new 2 ml waste liquid collection tube, added with 500 μl of Buffer AW2, (Qiagen, DNeasy® Blood & Tissue Kit), and centrifuged at 20000 rcf for 3 min, and the supernatant was discarded;
7) the DNeasy Mini spin column was placed in anew 1.5 ml EP tube, 50 μl of Buffer AE (Qiagen, DNeasy® Blood & Tissue Kit) was pipetted and directly applied onto the membrane of the DNeasy Mini spin column, which was then left at room temperature for 5 min, and centrifuged at 6000 rcf for 1 min to elute the DNA from the membrane, the DNeasy Mini spin column was discarded, and the DNA sample was collected and stored at −20° C.
1) Standard curve: 1e^7-1e^4 IU/ml, the sample amount was 1 μl, a blank well was set so as to check whether the reaction system is polluted or not;
2) 1 μl of a DNA sample was added in sequence;
3) Addition of enzyme and reaction buffer: two tubes of the reaction solution were first added into the enzyme, mixed well and centrifuged slightly, placed on ice, added with the sample, followed by addition of 19 μl of the enzyme reaction solution, wherein, during the addition, the DNA sample should be sure of not being touched to cause contamination;
4) the sample was sealed with a sealing film and centrifuged;
Stage 2: 10 cycles • Step 1: 93° C., 45 s • Step 2: 55° C., 1 min Stage 3: 45 cycles • Step 1: 93° C., 30 s • Step 2: 55° C., 45 s
Detection: data were collected after completing the step 2 (55° C., 45 s) of the stage 3.
The experimental data were processed by using the Origin software and IC50 was calculated.

Compound | CC50 at 8 days [1] [µM] | IC50 (HBV) [µM]
CS(=O)(=O)CCNc1nc(F)c(-c2nn(Cc3ccc(C#N)cc3)c(=O)c3ccccc23)cc1Cl [IV-75] | > 100 | 0.0366
N#Cc1ccc(Cn2nc(-c3cc(Cl)cnc3F)c3ccccc3c2=O)c(Cl)c1 [Compound I-41] | 46.6 | 0.108
Cc1ncc(-c2nn(Cc3ccc(Cl)cc3)c(=O)c3ccccc23)cn1 [II-4] | 97.6 | 7.1
CN(C)CCCCNc1ccc(-c2nn(Cc3ccc(C#N)cc3)c(=O)c3ccccc23)c(F)n1 [IV-40] | 18.6 | 0.66
N#Cc1ccc(Cn2nc(-c3cc(Cl)c(NCCC(=O)O)nc3F)c3ccccc3c2=O)cc1 [IV-63] | > 100 | 0.262
O=c1c2ccccc2c(-c2ccc(NCC3CCOCC3)nc2F)nn1Cc1ccc(Cl)cc1 [Compound I-30] | > 100 | 0.4
CN(C)c1ccc(-c2nn(Cc3ccc(Cl)cc3)c(=O)c3ccccc23)c(F)n1 [Compound I-13] | 32.7 | 1.2
CCOCCCNc1nc(F)c(-c2nn(Cc3ccc(C#N)cc3)c(=O)c3ccccc23)cc1Cl [IV-44] | 54.8 | < 0.0977
Cc1ccc(-c2nn(Cc3ccc(Cl)cc3)c(=O)c3cc(C)c(C)cc23)c(F)n1 [Compound V-4] | > 100 | 1.3
CNc1ccc(-c2nn(Cc3ccc(C#N)cc3)c(=O)c3ccccc23)c(F)n1 [IV-8] | > 100 | 0.9
Cc1ccc(-c2nn(Cc3ccc(Cl)cc3)c(=O)c3ccc(C(F)(F)F)cc23)c(F)n1 [Compound V-8] | > 100 | 1.1
[2H]C([2H])(c1ccc(C#N)cc1)n1nc(-c2ccc(F)nc2F)c2ccccc2c1=O [IV-18] | > 100 | 0.21
O=c1c2ccccc2c(-c2ccc(CO)nc2F)nn1Cc1ccc(Cl)cc1 [Compound I-22] | > 100 | 0.4
CCOCCOCCNc1ccc(-c2nn(Cc3ccc(C#N)cc3)c(=O)c3ccccc23)c(F)n1 [IV-56] | > 100 | 0.214
COC(=O)CCCNc1nc(F)c(-c2nn(Cc3ccc(C#N)cc3)c(=O)c3ccccc23)cc1Cl [IV-65] | > 100 | 0.117
COc1ccc2c(=O)n(Cc3ccc(Cl)cc3)nc(-c3ccc(C)nc3F)c2c1 [Compound V-5] | > 100 | 3.7
N#Cc1ccc(Cn2nc(-c3cc(Cl)c(N)nc3F)c3ccccc3c2=O)cc1 [IV-30] | 10.2 | < 0.0977
N#Cc1ccc(Cn2nc(-c3cccnc3)c3ccccc3c2=O)cc1 [IV-1] | > 100 | 5.4
CN(C)CCNc1ccc(-c2nn(Cc3ccc(C#N)cc3)c(=O)c3ccccc23)c(F)n1 [IV-14] | > 100 | 1.5
CC1(C)OCC(CNc2nc(F)c(-c3nn(Cc4ccc(C#N)cc4)c(=O)c4ccccc34)cc2Cl)O1 (stereo not drawn) [IV-79] | > 100 | 0.347
[2H]C([2H])([2H])c1ccc(-c2nn(Cc3ccc(Cl)cc3)c(=O)c3ccccc23)c(F)n1 [Compound I-34] | > 100 | 0.2
O=c1c2ccccc2c(-c2cc(Cl)cnc2F)nn1Cc1ccc(Cl)cc1 [Compound I-39] | > 25 | 0.21
COCc1ccc(-c2nn(Cc3ccc(Cl)cc3)c(=O)c3ccccc23)c(F)n1 [Compound I-32] | > 100 | 1
N#Cc1ccc(Cn2nc(-c3cc(O)cnc3F)c3ccccc3c2=O)cc1 [Compound I-43] | > 100 | 1.57

Compound | CC50 at 8 days [1] [µM] | IC50 (HBV) [µM]
CC(C)(C)Nc1ccc(-c2nn(Cc3ccc(C#N)cc3)c(=O)c3ccccc23)c(F)n1 [IV-12] | 46.3 | 3.7
[2H]C([2H])(c1ccc(-c2nn(Cc3ccc(Cl)cc3)c(=O)c3ccccc23)c(F)n1)N(C)C [Compound I-37] | 95 | 2.7
COCCNc1ccc(-c2nn(Cc3ccc(Cl)cc3)c(=O)c3ccccc23)c(F)n1 [IV-28] | 21.3 | 0.191
N#Cc1ccc(Cn2nc(-c3cc(Cl)c(NCCO)nc3F)c3ccccc3c2=O)cc1 [IV-77] | 32.1 | 0.0277
Nc1ncc(-c2nn(Cc3ccc(Cl)cc3)c(=O)c3ccccc23)cn1 [II-1] | 41.5 | 3.8
O=c1c2ccccc2c(-c2ccc(C(F)(F)F)nc2F)nn1Cc1ccc(Cl)cc1 [Compound I-19] | 77.5 | 0.2
N#Cc1ccc(Cn2nc(-c3ccc(N4CCC4)nc3F)c3ccccc3c2=O)cc1 [IV-11] | 98.5 | 0.4
COc1cc2c(-c3ccc(C)nc3F)nn(Cc3ccc(Cl)cc3)c(=O)c2cc1OC [Compound V-6] | > 100 | 2.6
CCNCCNc1nc(F)c(-c2nn(Cc3ccc(C#N)cc3)c(=O)c3ccccc23)cc1Cl [IV-48] | 7.38 | 0.516
COCCOCCOCCNc1nc(F)c(-c2nn(Cc3ccc(C#N)cc3)c(=O)c3ccccc23)cc1Cl [IV-50] | > 100 | 0.00965
Cc1ccc(-c2nn(Cc3ccc(Cl)cc3)c(=O)c3ccc(C#N)cc23)c(F)n1 [Compound V-7] | > 100 | 0.9
Cc1ccc2c(=O)n(Cc3ccc(Cl)cc3)nc(-c3ccc(C)nc3F)c2c1 [Compound V-3] | > 100 | 1.5
CC(C)(C)OC(=O)CCCNc1nc(F)c(-c2nn(Cc3ccc(C#N)cc3)c(=O)c3ccccc23)cc1Cl [IV-51] | 89.9 | 0.092
CCOC(=O)CNc1ccc(-c2nn(Cc3ccc(C#N)cc3)c(=O)c3ccccc23)c(F)n1 [IV-34] | > 100 | 15.7
CCOC(=O)CCNc1ccc(-c2nn(Cc3ccc(C#N)cc3)c(=O)c3ccccc23)c(F)n1 [IV-70] | > 100 | 3.32
CC(C)(C)Nc1ccc(-c2nn(Cc3ccc(Cl)cc3)c(=O)c3ccccc23)c(F)n1 [Compound I-14] | 10.3 | 2.1
N#Cc1ccc(Cn2nc(-c3ccc(NC4CC4)nc3F)c3ccccc3c2=O)cc1 [IV-13] | 78.5 | 3.8
CN(C)CCCNc1ccc(-c2nn(Cc3ccc(C#N)cc3)c(=O)c3ccccc23)c(F)n1 [IV-39] | 18.4 | 0.684
N#Cc1ccc(Cn2nc(-c3ccc(C4CC4)nc3F)c3ccccc3c2=O)cc1 [IV-19] | > 100 | 0.27
N#Cc1ccc(Cn2nc(-c3cc(Cl)c(NCC(O)CO)nc3F)c3ccccc3c2=O)cc1 (stereo not drawn) [IV-80] | > 100 | < 0.098
N#Cc1ccc(Cn2nc(-c3cc(Cl)c(NCCC(F)(F)F)nc3F)c3ccccc3c2=O)cc1 [IV-84] | 63.5 | < 0.098
CCNCCCCNc1nc(F)c(-c2nn(Cc3ccc(C#N)cc3)c(=O)c3ccccc23)cc1Cl [IV-55] | 2.56 | 0.09
Cc1ccc(-c2nn(Cc3ccc(Cl)cc3)c(=O)c3cc(F)c(F)cc23)c(F)n1 [Compound V-2] | > 100 | 0.3
Cc1ccc(-c2nn(Cc3ccc(C#N)cc3)c(=O)c3cc(C)c(C)cc23)c(F)n1 [Compound V-11] | > 100 | 1.2
